Reference: patent publication US20250340563A1, “FUSED PYRIDAZINE DERIVATIVES AS NLRP3 INHIBITORS” (Takeda Pharmaceutical Company Limited, priority 2022, published 2025)

The molecules below were run against NLRP3 inflammasome (Homo sapiens, UniProt Q96P20) (assay: IL-1β assay in IFN-γ-differentiated, LPS-primed, ATP-activated THP-1 cells (ELISA)). Conditions: 50 ng/mL LPS priming, 2.5 mM ATP activation, 2 hours.
Assay type: cell-based
Method in brief: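 THP-1 cells differentiated with 25 ng/mL IFN-γ for 24 h, then primed with 50 ng/mL LPS for 24 h in serum-free medium. After 30 min compound preincubation (1:3.16 dilution series), inflammasome activated with 2.5 mM ATP for 2 h at 37 °C. Supernatant IL-1β measured by ELISA; IC50 from logistic fit of % inhibition.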

NLRP3 inflammasome, sequence (Q96P20 whole entry): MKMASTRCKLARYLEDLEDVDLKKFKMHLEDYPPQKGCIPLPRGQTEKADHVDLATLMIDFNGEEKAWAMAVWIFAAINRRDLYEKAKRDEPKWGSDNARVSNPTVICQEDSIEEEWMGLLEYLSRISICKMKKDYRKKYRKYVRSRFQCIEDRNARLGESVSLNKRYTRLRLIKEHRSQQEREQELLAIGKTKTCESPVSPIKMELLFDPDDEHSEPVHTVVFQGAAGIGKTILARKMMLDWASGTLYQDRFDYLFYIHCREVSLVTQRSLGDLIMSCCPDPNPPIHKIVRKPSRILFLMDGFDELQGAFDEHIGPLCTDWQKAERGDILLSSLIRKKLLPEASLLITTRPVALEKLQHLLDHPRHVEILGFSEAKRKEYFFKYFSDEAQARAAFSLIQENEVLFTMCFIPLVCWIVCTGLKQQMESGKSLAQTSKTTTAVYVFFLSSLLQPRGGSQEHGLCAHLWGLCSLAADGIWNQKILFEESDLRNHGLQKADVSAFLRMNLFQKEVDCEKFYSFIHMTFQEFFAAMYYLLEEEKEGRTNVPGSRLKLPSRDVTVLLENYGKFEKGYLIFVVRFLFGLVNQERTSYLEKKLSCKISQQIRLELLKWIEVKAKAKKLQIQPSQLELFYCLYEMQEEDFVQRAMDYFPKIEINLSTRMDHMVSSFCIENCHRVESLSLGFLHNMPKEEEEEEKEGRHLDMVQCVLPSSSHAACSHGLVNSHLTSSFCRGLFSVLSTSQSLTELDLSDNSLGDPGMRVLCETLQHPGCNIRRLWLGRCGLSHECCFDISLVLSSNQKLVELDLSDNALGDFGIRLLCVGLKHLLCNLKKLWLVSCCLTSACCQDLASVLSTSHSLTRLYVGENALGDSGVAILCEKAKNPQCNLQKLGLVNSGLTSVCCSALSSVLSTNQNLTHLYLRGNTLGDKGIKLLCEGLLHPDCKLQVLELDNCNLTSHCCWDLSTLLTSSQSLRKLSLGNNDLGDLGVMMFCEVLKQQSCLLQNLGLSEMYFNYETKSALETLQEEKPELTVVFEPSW

Structure (SMILES) | IC50 [nM]
CS(=O)(=O)N1CCCC(Nc2nnc(-c3ccc(Cl)cc3)c3ccccc23)C1 (stereo not shown) [Example 148, 4-(4-chlorophenyl)-N-(1-(methylsulfonyl)piperidin-3-yl)phthalazin-1-amine] | 1050
CN(C)C1CC(Nc2nnc(-c3ccc(Cl)cc3)c3ccccc23)C1 (stereo not shown) [Example 149, Ni-(4-(4-chlorophenyl)phthalazin-1-yl)-N^3,N^3-dimethylcyclobutane-1,3-diamine] | 3310
COc1ccc(-c2nnc(NC3CCCN(C)C3)c3cnn(C)c23)cc1 (stereo not shown) [Example 150, 7-(4-methoxyphenyl)-1-methyl-N-(1-methylpiperidin-3-yl)-1H-pyrazolo[3,4-d]pyridazin-4-amine] | 325
CN1CC2CCCC(C1)C2Nc1nnc(-c2ccc(Cl)cc2)c2ccccc12 (stereo not shown) [Example 151, 4-(4-chlorophenyl)-N-(3-methyl-3-azabicyclo[3.3.1]nonan-9-yl)phthalazin-1-amine] | 3020
Clc1ccc(-c2nnc(NC3CCCN(c4ccccn4)C3)c3ccccc23)cc1 (stereo not shown) [Example 154, 4-(4-chlorophenyl)-N-(1-(pyridin-2-yl)piperidin-3-yl)phthalazin-1-amine] | 3390
Oc1ccccc1Nc1nnc(-c2ccc(Cl)cc2)c2ccccc12 [Example 156, 2-((4-(4-chlorophenyl)phthalazin-1-yl)amino)phenol] | 3550
CN1CC(Nc2nnc(-c3ccc(Cl)cc3)c3ccccc23)C(C)(C)C1 (stereo not shown) [Example 157, 4-(4-chlorophenyl)-N-(1,4,4-trimethylpyrrolidin-3-yl)phthalazin-1-amine] | 4570
Clc1ccc(-c2nnc(NC3CCN(Cc4ccccc4)C3)c3ccccc23)cc1 (stereo not shown) [Example 158, N-(1-benzylpyrrolidin-3-yl)-4-(4-chlorophenyl)phthalazin-1-amine] | 2290
CCN1CC(C)C(Nc2nnc(-c3ccc(Cl)cc3)c3ccccc23)C1 (stereo not shown) [Example 159, 4-(4-chlorophenyl)-N-(1-ethyl-4-methylpyrrolidin-3-yl)phthalazin-1-amine] | 3630
CC(=O)N1CCC(Nc2nnc(-c3ccc(Cl)cc3)c3ccccc23)C1 (stereo not shown) [Example 160, 1-(3-((4-(4-chlorophenyl)phthalazin-1-yl)amino)pyrrolidin-1-yl)ethan-1-one] | 4790
Clc1ccc(-c2nnc(NC3CCN(CC4CC4)C3)c3ccccc23)cc1 (stereo not shown) [Example 161, 4-(4-chlorophenyl)-N-(1-(cyclopropylmethyl)pyrrolidin-3-yl)phthalazin-1-amine] | 977
Clc1ccc(-c2nnc(NC3CCN(Cc4ccccc4)CC3)c3ccccc23)cc1 [Example 163, N-(1-benzylpiperidin-4-yl)-4-(4-chlorophenyl)phthalazin-1-amine] | 3020
Clc1ccc(-c2nnc(NC3CN4CCC3CC4)c3ccccc23)cc1 (stereo not shown) [Example 164, N-(4-(4-chlorophenyl)phthalazin-1-yl)quinuclidin-3-amine] | 372
CC(C)[C@@H]1CN(C)C[C@H]1Nc1nnc(-c2ccc(Cl)cc2)c2ccccc12 [Example 165, 4-(4-chlorophenyl)-N-((3S,4R)-4-isopropyl-1-methylpyrrolidin-3-yl)phthalazin-1-amine] | 3470
Clc1ccc(-c2nnc(NC3CN4CCC3C4)c3ccccc23)cc1 (stereo not shown) [Example 166, N-(1-azabicyclo[2.2.1]heptan-3-yl)-4-(4-chlorophenyl)phthalazin-1-amine] | 3310
Clc1ccc(-c2nnc(NC3CCN4CCC3C4)c3ccccc23)cc1 (stereo not shown) [Example 167, N-(1-azabicyclo[3.2.1]octan-4-yl)-4-(4-chlorophenyl)phthalazin-1-amine] | 3390

Structure (SMILES) | IC50 [nM]
FC(F)CN1CCC(Nc2nnc(-c3ccc(Cl)cc3)c3ccccc23)C1 (stereo not shown) [Example 170, 4-(4-chlorophenyl)-N-(1-(2,2-difluoroethyl)pyrrolidin-3-yl)phthalazin-1-amine] | 2140
CN1C[C@H](F)C[C@@H](Nc2nnc(-c3ccc(Cl)cc3)c3cnccc23)C1 [Example 175, 4-(4-chlorophenyl)-N-((3R,5R)-5-fluoro-1-methylpiperidin-3-yl)pyrido[3,4-d]pyridazin-1-amine] | 589
COc1ccc(-c2nnc(N[C@@H]3C[C@@H](F)CN(C)C3)c3ccncc23)cc1 [Example 179, N-((3R,5R)-5-fluoro-1-methylpiperidin-3-yl)-4-(4-methoxyphenyl)pyrido[3,4-d]pyridazin-1-amine] | 575
COc1ccc(-c2nnc(N[C@@H]3C[C@@H](F)CN(C)C3)c3cnccc23)c(F)c1 [Example 180, N-((3R,5R)-5-fluoro-1-methylpiperidin-3-yl)-1-(2-fluoro-4-methoxyphenyl)pyrido[3,4-d]pyridazin-4-amine] | 136
COc1cc(F)ccc1-c1nnc(N[C@@H]2C[C@@H](F)CN(C)C2)c2cnccc12 [Example 181, N-((3R,5R)-5-fluoro-1-methylpiperidin-3-yl)-1-(4-fluoro-2-methoxyphenyl)pyrido[3,4-d]pyridazin-4-amine] | 1000
COc1cc(F)ccc1-c1nnc(N[C@@H]2C[C@@H](F)CN(C)C2)c2ccncc12 [Example 182, N-((3R,5R)-5-fluoro-1-methylpiperidin-3-yl)-4-(4-fluoro-2-methoxyphenyl)pyrido[3,4-d]pyridazin-1-amine] | 3470
CN1C[C@H](F)C[C@@H](Nc2nnc(-c3ccc(Cl)cc3F)c3cnccc23)C1 [Example 183, 4-(4-chloro-2-fluorophenyl)-N-((3R,5R)-5-fluoro-1-methylpiperidin-3-yl)pyrido[3,4-d]pyridazin-1-amine] | 589
F[C@H]1CNC[C@H](Nc2nnc(-c3ccc(Cl)cc3)c3cnccc23)C1 [Example 187, 4-(4-chlorophenyl)-N-((3R,5R)-5-fluoropiperidin-3-yl)pyrido[3,4-d]pyridazin-1-amine] | 3090
F[C@H]1CNC[C@H](Nc2nnc(-c3ccc(Cl)cc3)c3ccncc23)C1 [Example 188, 1-(4-chlorophenyl)-N-((3R,5R)-5-fluoropiperidin-3-yl)pyrido[3,4-d]pyridazin-4-amine] | 692
FC1(F)CNCC(Nc2nnc(-c3ccc(Cl)cc3)c3ccccc23)C1 (stereo not shown) [Example 191, 4-(4-chlorophenyl)-N-(5,5-difluoropiperidin-3-yl)phthalazin-1-amine] | 1290
COC1CC(N2CCCC(Nc3nnc(-c4ccc(Cl)cc4)c4ccncc34)C2)C1 (stereo not shown) [Example 197, 1-(4-chlorophenyl)-N-(1-(3-methoxycyclobutyl)piperidin-3-yl)pyrido[3,4-d]pyridazin-4-amine] | 708
COc1ccc(-c2nnc(Nc3cccc(O)c3)c3ncccc23)cc1 [Example 198, 3-((5-(4-methoxyphenyl)pyrido[2,3-d]pyridazin-8-yl)amino)phenol] | 4380
COc1ccc(-c2nnc(Nc3cccc(O)c3)c3c2CCCC3)cc1 [Example 199, 3-((4-(4-methoxyphenyl)-5,6,7,8-tetrahydrophthalazin-1-yl)amino)phenol] | 2750
CN1C[C@H](F)C[C@@H](Nc2nnc(-c3ccccc3O)c3c2CCOC3)C1 [Example 202, 2-(1-(((3R,5R)-5-fluoro-1-methylpiperidin-3-yl)amino)-7,8-dihydro-5H-pyrano[3,4-d]pyridazin-4-yl)phenol] | 210
COc1ccc(-c2nnc(N[C@@H]3CCCN(C)C3)c3c2COCC3)cc1 [Example 223, (R)-4-(4-methoxyphenyl)-N-(1-methylpiperidin-3-yl)-7,8-dihydro-5H-pyrano[3,4-d]pyridazin-1-amine] | 457
